Inhibition data for three compounds are collected here from paper PMC6430017, “Structural and chemical insights into the covalent-allosteric inhibition of the protein kinase Akt” (Chemical Science, 2019).

Some targets named below: GRK4 (Homo sapiens, UniProt P32298); PRKCQ (PKC theta) (Homo sapiens, UniProt Q04759); AMPK A1/B1/G1 (Homo sapiens, UniProt Q13131); KIT (Homo sapiens, UniProt P10721); PRKCD (PKC delta) (Homo sapiens, UniProt Q05655); JAK2 (Homo sapiens, UniProt O60674); PIM1 (Homo sapiens, UniProt P11309); PTK2 (FAK) (Homo sapiens, UniProt Q05397); MAP4K5 (KHS1) (Homo sapiens, UniProt Q9Y4K4).

What all share (experiment): SelectScreen Z'LYTE kinase profiling
Common to all, as to type: biochemical
Conditions in all cases: ATP at apparent KM

For the next test, the target named is T1, SGKL (SGK3) (Homo sapiens, UniProt Q96BR1).
T1 sequence (Q96BR1 1-496): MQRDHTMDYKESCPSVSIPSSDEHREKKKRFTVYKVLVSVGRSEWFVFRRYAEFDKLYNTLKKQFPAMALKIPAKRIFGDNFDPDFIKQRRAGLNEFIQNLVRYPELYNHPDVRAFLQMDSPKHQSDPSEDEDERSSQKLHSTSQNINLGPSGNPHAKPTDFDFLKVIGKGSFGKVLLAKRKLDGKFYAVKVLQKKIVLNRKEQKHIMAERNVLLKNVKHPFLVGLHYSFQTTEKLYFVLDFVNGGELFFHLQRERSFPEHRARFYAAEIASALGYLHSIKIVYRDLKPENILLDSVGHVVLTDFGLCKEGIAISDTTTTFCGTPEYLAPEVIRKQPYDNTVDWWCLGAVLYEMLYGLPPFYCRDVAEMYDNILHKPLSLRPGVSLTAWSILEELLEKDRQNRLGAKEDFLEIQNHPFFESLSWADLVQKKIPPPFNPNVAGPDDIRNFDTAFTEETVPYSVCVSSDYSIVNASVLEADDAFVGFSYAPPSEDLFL

A further test has as its target T2, PRKCE (PKC epsilon) (Homo sapiens, UniProt Q02156).
T2 sequence (Q02156 1-737): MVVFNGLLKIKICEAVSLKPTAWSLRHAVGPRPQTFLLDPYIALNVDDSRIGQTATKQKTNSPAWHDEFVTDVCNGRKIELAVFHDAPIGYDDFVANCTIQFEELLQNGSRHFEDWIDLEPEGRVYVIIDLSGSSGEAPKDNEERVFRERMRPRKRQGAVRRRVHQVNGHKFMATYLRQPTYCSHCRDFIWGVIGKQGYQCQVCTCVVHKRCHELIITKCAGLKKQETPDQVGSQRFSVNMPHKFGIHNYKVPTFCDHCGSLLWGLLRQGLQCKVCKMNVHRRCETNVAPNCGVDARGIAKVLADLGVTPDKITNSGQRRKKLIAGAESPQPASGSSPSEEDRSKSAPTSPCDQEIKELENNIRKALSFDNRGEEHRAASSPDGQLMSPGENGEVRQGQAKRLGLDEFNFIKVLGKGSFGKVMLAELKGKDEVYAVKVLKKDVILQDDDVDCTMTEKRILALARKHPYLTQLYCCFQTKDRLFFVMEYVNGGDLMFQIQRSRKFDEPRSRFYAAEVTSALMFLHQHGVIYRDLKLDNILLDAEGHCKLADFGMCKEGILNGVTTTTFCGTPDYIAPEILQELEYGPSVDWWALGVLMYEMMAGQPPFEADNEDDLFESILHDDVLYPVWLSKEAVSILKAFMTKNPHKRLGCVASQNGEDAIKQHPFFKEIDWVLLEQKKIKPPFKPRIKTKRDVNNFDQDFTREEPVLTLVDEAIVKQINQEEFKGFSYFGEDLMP

A further test addresses T3, TXK (Homo sapiens, UniProt P42681).
T3 sequence (P42681 1-527): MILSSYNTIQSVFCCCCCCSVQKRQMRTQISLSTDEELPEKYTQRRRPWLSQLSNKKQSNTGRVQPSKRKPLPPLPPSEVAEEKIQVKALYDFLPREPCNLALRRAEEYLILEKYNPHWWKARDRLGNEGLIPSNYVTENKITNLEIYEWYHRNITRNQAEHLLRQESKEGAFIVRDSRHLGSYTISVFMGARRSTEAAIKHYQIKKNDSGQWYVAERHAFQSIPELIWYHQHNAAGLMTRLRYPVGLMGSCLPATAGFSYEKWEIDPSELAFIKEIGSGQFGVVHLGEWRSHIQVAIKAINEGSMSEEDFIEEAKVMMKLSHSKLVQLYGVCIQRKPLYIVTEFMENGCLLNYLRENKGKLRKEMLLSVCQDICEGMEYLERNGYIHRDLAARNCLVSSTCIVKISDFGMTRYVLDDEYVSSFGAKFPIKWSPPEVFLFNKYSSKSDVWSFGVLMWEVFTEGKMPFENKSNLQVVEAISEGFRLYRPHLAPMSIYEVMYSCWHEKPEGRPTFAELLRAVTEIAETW

A further test addresses T4, STK4 (MST1) (Homo sapiens, UniProt Q13043).
T4 sequence (Q13043 1-487): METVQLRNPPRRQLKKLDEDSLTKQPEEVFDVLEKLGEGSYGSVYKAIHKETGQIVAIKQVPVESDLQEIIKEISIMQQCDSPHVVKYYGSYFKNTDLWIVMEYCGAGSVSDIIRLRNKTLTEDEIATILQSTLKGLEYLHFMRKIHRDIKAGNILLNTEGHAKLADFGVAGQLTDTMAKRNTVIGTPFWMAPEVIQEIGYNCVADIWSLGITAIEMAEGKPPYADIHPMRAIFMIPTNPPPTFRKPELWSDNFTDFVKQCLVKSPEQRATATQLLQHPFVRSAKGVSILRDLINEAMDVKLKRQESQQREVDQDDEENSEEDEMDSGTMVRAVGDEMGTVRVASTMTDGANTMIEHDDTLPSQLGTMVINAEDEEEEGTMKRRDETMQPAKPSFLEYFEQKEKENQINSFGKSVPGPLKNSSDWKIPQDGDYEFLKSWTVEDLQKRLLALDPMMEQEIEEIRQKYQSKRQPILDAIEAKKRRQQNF

Test [1] addresses MAPK14 (p38 alpha) Direct (Homo sapiens, UniProt Q16539).
Procedure: (§1) protein kinases at a compound concentration of 1 µM. Measurements were performed in duplicates
(§2) and at the particular apparent ATP KM of each individual kinase employing the activity based Z’LYTE®
(§3) kinase assay of the SelectScreen® Kinase Profiling Services (ThermoFisher Scientific).
(§4) kinases at a compound concentration of 1 µM. Measurements were performed in duplicates and at
(§5) the particular apparent ATP KM of each individual kinase employing the activity based Z’LYTE® kinase
(§6) assay of the SelectScreen® Kinase Profiling Services (ThermoFisher Scientific).

Chain of GRK4 (P32298 whole entry): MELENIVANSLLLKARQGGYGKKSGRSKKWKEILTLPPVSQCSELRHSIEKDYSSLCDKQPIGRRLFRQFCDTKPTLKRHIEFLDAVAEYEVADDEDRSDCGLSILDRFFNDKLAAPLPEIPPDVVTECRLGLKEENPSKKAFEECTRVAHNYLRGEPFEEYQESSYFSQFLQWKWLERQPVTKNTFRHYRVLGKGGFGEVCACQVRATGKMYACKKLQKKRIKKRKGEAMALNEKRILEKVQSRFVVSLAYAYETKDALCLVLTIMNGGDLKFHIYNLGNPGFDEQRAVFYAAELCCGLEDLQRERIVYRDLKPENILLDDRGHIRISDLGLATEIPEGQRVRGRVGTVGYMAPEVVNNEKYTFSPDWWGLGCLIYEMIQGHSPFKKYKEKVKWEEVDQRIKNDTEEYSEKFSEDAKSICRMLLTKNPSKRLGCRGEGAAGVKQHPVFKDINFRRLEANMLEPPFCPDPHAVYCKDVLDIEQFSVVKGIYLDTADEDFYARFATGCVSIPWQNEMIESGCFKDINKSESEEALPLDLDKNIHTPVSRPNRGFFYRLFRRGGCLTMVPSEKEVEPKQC
Chain of JAK2 (O60674 whole entry): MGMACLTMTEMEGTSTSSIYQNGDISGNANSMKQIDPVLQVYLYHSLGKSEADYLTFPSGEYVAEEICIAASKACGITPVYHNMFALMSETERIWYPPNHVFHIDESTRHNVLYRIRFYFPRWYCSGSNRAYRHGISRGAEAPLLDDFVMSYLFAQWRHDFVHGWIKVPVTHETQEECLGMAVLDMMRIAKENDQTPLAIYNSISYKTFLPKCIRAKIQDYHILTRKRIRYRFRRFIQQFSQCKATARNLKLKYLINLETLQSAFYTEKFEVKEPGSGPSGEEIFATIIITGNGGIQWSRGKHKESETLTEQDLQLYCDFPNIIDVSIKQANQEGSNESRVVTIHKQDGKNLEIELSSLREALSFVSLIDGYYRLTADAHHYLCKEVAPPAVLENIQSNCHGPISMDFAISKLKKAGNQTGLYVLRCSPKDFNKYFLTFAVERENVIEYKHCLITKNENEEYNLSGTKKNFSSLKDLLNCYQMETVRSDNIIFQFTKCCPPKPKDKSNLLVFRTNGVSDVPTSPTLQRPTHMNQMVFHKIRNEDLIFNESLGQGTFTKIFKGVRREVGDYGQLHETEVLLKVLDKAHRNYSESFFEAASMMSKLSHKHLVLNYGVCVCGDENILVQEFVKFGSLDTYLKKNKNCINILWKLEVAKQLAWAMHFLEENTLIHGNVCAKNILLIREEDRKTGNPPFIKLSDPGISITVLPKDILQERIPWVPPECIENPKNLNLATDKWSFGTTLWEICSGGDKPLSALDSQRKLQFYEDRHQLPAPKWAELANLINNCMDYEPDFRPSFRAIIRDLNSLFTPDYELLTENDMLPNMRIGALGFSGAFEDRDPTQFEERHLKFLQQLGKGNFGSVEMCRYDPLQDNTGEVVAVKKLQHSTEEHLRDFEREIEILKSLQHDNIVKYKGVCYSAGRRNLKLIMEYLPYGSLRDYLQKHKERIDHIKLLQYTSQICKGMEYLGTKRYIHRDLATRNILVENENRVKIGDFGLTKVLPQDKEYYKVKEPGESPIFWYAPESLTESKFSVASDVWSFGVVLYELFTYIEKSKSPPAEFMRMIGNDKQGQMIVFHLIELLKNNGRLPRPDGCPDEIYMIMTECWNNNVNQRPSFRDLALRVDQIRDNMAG
Chain of PTK2 (FAK) (Q05397 whole entry): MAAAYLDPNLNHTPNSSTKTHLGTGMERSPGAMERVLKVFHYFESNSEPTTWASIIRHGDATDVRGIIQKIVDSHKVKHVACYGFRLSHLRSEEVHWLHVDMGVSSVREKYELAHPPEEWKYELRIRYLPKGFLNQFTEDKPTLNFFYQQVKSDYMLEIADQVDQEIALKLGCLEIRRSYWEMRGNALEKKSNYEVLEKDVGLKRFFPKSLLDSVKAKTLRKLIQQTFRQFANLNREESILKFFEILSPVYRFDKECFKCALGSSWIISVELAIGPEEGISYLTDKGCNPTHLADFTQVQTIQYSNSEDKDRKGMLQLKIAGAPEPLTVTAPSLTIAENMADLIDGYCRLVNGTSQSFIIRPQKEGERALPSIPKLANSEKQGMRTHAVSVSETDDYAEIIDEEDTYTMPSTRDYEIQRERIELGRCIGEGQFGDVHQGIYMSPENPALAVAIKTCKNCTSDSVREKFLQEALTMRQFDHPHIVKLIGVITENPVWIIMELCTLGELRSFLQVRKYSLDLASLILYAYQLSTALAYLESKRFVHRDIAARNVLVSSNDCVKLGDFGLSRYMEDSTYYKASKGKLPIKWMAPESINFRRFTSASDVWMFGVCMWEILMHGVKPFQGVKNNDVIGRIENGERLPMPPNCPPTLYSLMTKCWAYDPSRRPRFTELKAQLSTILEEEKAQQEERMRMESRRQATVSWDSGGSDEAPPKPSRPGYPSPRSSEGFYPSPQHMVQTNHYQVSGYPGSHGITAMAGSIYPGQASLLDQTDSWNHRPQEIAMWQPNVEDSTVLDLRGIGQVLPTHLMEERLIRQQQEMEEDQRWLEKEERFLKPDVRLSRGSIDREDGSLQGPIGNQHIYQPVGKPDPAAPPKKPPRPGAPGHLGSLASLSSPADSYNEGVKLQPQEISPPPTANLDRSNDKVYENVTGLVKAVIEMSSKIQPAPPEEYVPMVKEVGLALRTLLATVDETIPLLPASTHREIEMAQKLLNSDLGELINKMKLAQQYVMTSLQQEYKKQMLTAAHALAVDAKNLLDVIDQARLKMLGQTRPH
Chain of KIT (P10721 26-976): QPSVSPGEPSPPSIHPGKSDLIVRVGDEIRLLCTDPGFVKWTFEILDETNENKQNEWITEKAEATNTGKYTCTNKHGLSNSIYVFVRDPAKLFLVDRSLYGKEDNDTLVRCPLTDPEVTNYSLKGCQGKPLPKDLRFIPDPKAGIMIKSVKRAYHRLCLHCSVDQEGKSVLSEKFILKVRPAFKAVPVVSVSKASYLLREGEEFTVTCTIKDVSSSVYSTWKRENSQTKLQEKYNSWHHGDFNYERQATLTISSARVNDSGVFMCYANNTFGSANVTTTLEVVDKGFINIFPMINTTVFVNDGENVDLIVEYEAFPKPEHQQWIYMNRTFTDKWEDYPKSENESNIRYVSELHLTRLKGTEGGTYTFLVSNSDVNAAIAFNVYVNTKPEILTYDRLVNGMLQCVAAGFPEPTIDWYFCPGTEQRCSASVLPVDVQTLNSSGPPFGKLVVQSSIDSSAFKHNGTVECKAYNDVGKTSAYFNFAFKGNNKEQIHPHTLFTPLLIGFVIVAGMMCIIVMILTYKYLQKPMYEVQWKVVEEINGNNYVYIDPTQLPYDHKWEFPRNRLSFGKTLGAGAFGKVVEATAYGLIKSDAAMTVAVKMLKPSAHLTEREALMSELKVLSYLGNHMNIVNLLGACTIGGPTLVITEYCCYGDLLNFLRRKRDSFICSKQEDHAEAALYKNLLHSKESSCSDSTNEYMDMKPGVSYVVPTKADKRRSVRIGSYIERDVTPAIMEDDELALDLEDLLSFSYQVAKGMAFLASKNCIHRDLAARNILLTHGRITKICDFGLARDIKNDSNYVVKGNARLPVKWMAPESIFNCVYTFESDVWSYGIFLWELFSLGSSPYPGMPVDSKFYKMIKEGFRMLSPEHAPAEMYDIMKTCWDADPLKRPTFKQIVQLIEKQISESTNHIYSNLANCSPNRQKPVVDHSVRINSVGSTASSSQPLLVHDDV
Chain of PIM1 (P11309 whole entry): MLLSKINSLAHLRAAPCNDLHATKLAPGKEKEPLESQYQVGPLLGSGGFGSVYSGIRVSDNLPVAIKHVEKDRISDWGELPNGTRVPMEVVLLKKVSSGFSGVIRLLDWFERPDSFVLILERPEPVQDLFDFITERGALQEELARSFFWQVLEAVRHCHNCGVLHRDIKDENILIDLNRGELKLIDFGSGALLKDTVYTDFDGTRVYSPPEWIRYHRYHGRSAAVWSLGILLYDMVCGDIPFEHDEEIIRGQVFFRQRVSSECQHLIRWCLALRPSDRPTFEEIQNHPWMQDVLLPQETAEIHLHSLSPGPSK
Chain of PRKCD (PKC delta) (Q05655 whole entry): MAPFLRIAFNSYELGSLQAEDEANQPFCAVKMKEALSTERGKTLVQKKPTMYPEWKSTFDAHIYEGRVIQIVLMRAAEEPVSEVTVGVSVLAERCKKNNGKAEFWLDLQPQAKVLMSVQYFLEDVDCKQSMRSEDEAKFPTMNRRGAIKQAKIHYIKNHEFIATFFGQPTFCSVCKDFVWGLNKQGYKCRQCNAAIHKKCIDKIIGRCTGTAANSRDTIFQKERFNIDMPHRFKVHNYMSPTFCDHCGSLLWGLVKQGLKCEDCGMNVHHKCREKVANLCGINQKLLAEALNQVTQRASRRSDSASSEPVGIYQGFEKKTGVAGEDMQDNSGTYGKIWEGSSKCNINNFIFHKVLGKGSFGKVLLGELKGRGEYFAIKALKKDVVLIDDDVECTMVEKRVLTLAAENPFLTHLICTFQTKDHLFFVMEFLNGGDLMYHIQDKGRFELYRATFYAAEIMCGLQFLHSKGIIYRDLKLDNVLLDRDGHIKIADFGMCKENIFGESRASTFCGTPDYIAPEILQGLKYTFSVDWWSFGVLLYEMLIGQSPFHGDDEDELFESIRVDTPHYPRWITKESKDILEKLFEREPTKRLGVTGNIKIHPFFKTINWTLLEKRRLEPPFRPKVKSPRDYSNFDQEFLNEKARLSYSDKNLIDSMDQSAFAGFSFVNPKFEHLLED
Chain of MAPK14 (p38 alpha) Direct (Q16539 whole entry): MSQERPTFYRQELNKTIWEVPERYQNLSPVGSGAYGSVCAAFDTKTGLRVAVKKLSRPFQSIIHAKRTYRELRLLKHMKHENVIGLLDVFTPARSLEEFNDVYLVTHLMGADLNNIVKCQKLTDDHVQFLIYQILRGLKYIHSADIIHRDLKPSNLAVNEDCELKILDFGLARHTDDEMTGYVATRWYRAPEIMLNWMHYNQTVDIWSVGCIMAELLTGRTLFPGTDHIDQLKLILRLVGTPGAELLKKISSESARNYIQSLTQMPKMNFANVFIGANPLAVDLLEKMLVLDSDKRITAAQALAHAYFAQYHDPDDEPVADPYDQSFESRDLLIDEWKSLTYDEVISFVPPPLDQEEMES
Procedure for AMPK A1/B1/G1: as §1, §2, §3, §4, §5, §6
Procedure for GRK4: as §1, §2, §3, §4, §5, §6
Procedure for JAK2: as §1, §2, §3, §4, §5, §6
Procedure for KIT: as §1, §2, §3, §4, §5, §6
Procedure for MAP4K5 (KHS1): as §1, §2, §3, §4, §5, §6
Procedure for PIM1: as §1, §2, §3, §4, §5, §6
Procedure for PRKCD (PKC delta): as §1, §2, §3, §4, §5, §6
Procedure for PRKCE (PKC epsilon): as §1, §2, §3, §4, §5, §6
Procedure for PRKCQ (PKC theta): as §1, §2, §3, §4, §5, §6
Procedure for PTK2 (FAK): as §1, §2, §3, §4, §5, §6
Procedure for SGKL (SGK3): as §1, §2, §3, §4, §5, §6
Procedure for TXK: as §1, §2, §3, §4, §5, §6

On to `C=CC(=O)Nc1ccc2c(c1)n(C1CCN(Cc3ccc(-c4nc5cc[nH]c(=O)c5cc4-c4ccccc4)cc3)CC1)c(=O)n2C` [24b], for which the inhibition at 1 µM on SGKL (SGK3) was -5%; on GRK4, -1%; on PRKCE (PKC epsilon), 12%; at TXK it was -5%; on STK4 (MST1), 6%; on PRKCQ (PKC theta) it was 7%. The inhibition at 1 µM on AMPK A1/B1/G1 is 17%; at KIT, 6%; at PRKCD (PKC delta) it was 0%; on JAK2, 2%; at PIM1, -21%; in [1], 2%. For the same compound, the values for the inhibition at 1 µM on PTK2 (FAK) and on MAP4K5 (KHS1) were -20% and 3%, respectively.
In the case of `C=CC(=O)Nc1cccc(C(=O)NC2CCN(Cc3ccc(-c4nc5cc[nH]c(=O)c5cc4-c4ccccc4)cc3)CC2)c1` [30b], the inhibition at 1 µM on SGKL (SGK3) is -4%; at GRK4, 6%; on PRKCE (PKC epsilon) it was 27%; on TXK, 2%; at STK4 (MST1), 7%; on PRKCQ (PKC theta) it was 13%. The inhibition at 1 µM at AMPK A1/B1/G1 is 46%; on KIT, 9%; at PRKCD (PKC delta), 9%; on JAK2, 16%; at PIM1, -15%; in test [1] it was 6%. The inhibition at 1 µM at PTK2 (FAK) was -4%; on MAP4K5 (KHS1) it was 18%.
For `C=CC(=O)Nc1cc(NC(=O)NC2CCN(Cc3ccc(-c4nc5cc[nH]c(=O)c5cc4-c4ccccc4)cc3)CC2)ccc1Cl` [compound 27], the inhibition at 1 µM is -1% at SGKL (SGK3); 11% on GRK4; 11% at PRKCE (PKC epsilon); -9% at TXK; 14% at STK4 (MST1); 11% at PRKCQ (PKC theta). Besides, the inhibition at 1 µM is 76% on AMPK A1/B1/G1; 9% at KIT; 6% on PRKCD (PKC delta); 0% at JAK2; -18% on PIM1; 10% in test [1]. The inhibition at 1 µM at PTK2 (FAK) is -1%; at MAP4K5 (KHS1), 5%.
